Measured values: US20240285755A1, “Adjuvants” (GlaxoSmithKline Biologicals SA, priority 2021, published 2024)

System: HSV-1 gE/gI
Experiment: Total anti-HSV-1 gE/gI cross-reactive IgG antibodies by ELISA in serum of immunised mice
Format: in vivo, CB6F1 mice
Conditions: 0.1 ug LNP/SAM i.m. days 0 & 28, adjuvanted with 2.22 ug of STING agonist at day+0, +1 or +3; 21PII (day 49); FIG. 3
Description: Female CB6F1 inbred mice aged 6-8 weeks old were randomly assigned to study groups (n=8 gr1-10 (groups 1-10) and n=4/gr11 (group 11)) and kept under pathogen-free conditions. Mice ([…]) were intramuscularly (i.m.) immunized, in the gastrocnemius muscle, on days 0 and 28 with 0.1ug of LNP-formulated SAM (25 uL volume) comprising a heterodimer of the HSV-2 gE and gI proteins (LNP/SAM-gE_P317R/gI) and were injected, in the same muscle, with different doses of STING agonist (0.25, 0.74 or 2.22ug) either at the same time (day+0) or 1 or 3 days after each of the two SAM immunizations. […]
Quantification of the total HSV-1 gE/gI-specific IgG antibodies was performed using indirect ELISA. […]
The plates were then washed four times with washing buffer and 2 times with deionised water and incubated for 15 min at RT (room temperature) with 100 uL/well of a solution of 75% single-component TMB peroxidase ELISA substrate diluted in sodium citrate 0.1M pH5.5 buffer. Enzymatic color development was stopped with 100 uL of […] sulfuric acid 1M (H2SO4) per well and the plates were read at an absorbance of 450/620 nm using an ELISA reader. Optical densities (OD) were captured and analysed. […] Antibody titer in the samples was calculated by interpolation of the standard curve. […]

Compound: CCn1nc(C)cc1C(=O)/N=c1\[nH]c2cc(C(N)=O)cc(OC)c2n1C/C=C/Cn1/c(=N/C(=O)c2cc(C)nn2CC)[nH]c2cc(C(N)=O)cc(OCCCOP(=O)(O)O)c21 [STING, 3-(((E)-6-carbamoyl-3-((E)-4-((E)-5-carbamoyl-2-((1-ethyl-3-methyl-1H-pyrazole-5-carbonyl)imino)-7-methoxy-2,3-dihydro-1H-benzo[d]imidazol-1-yl)but-2-en-1-yl)-2-((1-ethyl-3-methyl-1H-pyrazole-5-carbonyl)imino)-2,3-dihydro-1H-benzo[d]imidazol-4-yl)oxy)propyl]
- GM titers of anti-HSV-1 gE/gI cross reactive IgG antibody relative to unadjuvanted control: increased GM titers of anti-HSV-1 gE/gI cross reactive IgG antibody in all groups
